Read-outs that look alike come from different tables or passages of the source.
How the values were obtained:
Experiment in all cases: KinomeScan kinase panel, single concentration 10 µM
Format in all cases: binding
KinomeScan kinase panel [1] = biological target: T1, KinomeScan kinase panel (Homo sapiens, UniProt O75582); conditions: 10 µM, read-out: score (%)
T1 construct: purchased DiscoveRx (KinomeScan)

KinomeScan kinase panel [2] = biological target: T2, KinomeScan kinase panel (Homo sapiens, UniProt Q8N568); conditions: DCAMKL2, 10 µM; read-out: score (%)
T2 construct: purchased DiscoveRx (KinomeScan)

KinomeScan kinase panel [3] = biological target: T3, KinomeScan kinase panel (Homo sapiens, UniProt O15530); conditions: PDPK1, 10 µM; read-out: score (%)
T3 construct: purchased DiscoveRx (KinomeScan)
T3 sequence (O15530 1-556): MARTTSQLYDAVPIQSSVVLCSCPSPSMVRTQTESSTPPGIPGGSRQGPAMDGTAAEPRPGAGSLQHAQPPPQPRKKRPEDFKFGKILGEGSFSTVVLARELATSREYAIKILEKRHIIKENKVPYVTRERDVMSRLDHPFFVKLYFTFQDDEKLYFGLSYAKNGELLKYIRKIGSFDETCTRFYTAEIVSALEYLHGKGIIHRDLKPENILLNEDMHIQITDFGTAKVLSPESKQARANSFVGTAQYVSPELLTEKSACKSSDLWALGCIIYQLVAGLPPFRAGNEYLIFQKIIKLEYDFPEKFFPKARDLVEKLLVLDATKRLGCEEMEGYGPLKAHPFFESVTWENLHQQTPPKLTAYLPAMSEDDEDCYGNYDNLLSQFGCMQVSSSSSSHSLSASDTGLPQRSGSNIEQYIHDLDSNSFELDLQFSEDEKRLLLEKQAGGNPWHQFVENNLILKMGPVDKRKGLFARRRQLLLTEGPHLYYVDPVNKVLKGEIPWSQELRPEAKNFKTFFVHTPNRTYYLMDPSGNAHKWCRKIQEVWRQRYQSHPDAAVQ

KinomeScan kinase panel [4] = biological target: T4, KinomeScan kinase panel (Homo sapiens, UniProt P22694); conditions: PKAC-beta, 10 µM; read-out: score (%)
T4 construct: purchased DiscoveRx (KinomeScan)

KinomeScan kinase panel [5] = biological target: T5, KinomeScan kinase panel (Homo sapiens, UniProt Q8TDX7); conditions: NEK7, 10 µM; read-out: score (%)
T5 construct: purchased DiscoveRx (KinomeScan)

KinomeScan kinase panel [6] = biological target: T6, KinomeScan kinase panel (Homo sapiens, UniProt P45985); conditions: MEK4, 10 µM; read-out: score (%)
T6 construct: purchased DiscoveRx (KinomeScan)
T6 sequence (P45985 1-399): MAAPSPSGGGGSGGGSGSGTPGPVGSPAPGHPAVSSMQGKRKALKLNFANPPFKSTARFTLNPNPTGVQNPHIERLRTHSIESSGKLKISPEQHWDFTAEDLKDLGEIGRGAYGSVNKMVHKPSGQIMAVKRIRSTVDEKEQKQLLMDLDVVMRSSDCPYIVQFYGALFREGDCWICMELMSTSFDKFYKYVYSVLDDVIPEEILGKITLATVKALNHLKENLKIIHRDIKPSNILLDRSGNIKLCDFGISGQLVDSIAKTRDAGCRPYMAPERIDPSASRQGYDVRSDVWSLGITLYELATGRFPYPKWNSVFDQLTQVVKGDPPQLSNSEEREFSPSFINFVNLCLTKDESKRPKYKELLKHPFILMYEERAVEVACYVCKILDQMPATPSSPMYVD

KinomeScan kinase panel [7] = biological target: T7, KinomeScan kinase panel (Homo sapiens, UniProt P06213); conditions: INSR, 10 µM; read-out: score (%)
T7 construct: purchased DiscoveRx (KinomeScan)

KinomeScan kinase panel [8] = biological target: T8, KinomeScan kinase panel (Homo sapiens, UniProt P54762); conditions: EPHB1, 10 µM; read-out: score (%)
T8 construct: purchased DiscoveRx (KinomeScan)
T8 sequence (P54762 18-984): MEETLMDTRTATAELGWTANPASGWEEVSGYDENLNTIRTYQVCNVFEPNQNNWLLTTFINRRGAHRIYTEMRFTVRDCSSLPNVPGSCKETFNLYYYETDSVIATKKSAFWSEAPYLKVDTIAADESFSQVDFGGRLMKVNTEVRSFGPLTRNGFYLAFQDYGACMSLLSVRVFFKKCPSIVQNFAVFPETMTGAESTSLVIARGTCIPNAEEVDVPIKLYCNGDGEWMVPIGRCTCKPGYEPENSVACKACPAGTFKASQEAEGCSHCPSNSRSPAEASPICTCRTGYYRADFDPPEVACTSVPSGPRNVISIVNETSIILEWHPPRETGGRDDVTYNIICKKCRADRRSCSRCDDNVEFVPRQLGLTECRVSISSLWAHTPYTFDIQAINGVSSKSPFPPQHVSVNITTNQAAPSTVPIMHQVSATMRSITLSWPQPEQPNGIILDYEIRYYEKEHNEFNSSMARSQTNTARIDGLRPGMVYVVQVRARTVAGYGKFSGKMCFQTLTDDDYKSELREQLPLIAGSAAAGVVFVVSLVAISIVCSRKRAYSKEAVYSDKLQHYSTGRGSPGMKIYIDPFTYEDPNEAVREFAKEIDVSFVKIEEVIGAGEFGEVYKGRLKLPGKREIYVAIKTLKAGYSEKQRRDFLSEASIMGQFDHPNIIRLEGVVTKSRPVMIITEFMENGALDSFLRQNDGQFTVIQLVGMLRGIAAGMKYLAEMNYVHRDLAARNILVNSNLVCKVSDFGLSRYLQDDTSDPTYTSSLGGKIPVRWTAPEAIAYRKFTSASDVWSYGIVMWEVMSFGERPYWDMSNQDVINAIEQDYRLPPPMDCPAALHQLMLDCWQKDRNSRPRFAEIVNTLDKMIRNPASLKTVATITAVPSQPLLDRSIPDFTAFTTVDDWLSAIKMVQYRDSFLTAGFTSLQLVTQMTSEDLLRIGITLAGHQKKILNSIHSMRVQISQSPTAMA

KinomeScan kinase panel [9] = biological target: T9, KinomeScan kinase panel (Homo sapiens, UniProt P00533, DEL746-750)
T9 construct: purchased DiscoveRx (KinomeScan)

KinomeScan kinase panel [10] = biological target: T10, KinomeScan kinase panel (Homo sapiens, UniProt P68400); conditions: CSNK2A1, 10 µM; read-out: score (%)
T10 construct: purchased DiscoveRx (KinomeScan)

[11] = kinase RPS6KA5(Kin.Dom.1-N-terminal)
[12] = kinase RPS6KA5(Kin.Dom.2-C-terminal)

T1 sequence (O75582 whole entry): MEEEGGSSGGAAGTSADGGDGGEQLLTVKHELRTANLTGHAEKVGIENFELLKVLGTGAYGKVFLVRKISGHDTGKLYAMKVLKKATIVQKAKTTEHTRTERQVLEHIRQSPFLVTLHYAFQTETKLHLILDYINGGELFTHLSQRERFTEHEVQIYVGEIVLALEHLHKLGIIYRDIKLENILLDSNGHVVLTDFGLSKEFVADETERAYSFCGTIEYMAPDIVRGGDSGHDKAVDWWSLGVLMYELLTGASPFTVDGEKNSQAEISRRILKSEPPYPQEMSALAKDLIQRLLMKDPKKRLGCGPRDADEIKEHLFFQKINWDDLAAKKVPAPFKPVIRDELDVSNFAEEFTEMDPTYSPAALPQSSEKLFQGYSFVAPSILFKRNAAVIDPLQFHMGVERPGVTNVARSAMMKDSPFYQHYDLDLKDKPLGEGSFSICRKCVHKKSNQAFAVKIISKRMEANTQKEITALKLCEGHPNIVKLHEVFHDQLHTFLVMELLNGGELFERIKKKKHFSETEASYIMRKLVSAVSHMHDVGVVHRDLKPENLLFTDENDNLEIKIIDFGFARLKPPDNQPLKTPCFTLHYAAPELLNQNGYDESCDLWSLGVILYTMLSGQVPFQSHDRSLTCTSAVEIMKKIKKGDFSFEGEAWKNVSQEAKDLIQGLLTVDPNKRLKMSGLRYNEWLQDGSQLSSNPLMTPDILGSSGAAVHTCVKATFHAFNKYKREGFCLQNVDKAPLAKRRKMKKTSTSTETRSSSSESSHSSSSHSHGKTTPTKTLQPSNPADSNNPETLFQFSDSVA
T5 sequence (Q8TDX7 whole entry): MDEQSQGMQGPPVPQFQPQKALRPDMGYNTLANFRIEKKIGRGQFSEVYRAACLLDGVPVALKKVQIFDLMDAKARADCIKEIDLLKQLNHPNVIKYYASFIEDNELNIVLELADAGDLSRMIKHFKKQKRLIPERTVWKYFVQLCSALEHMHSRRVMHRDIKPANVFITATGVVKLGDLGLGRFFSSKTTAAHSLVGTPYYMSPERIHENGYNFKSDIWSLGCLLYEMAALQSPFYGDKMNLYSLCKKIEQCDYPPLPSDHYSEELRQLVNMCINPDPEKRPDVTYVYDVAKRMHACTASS
T10 sequence (P68400 whole entry): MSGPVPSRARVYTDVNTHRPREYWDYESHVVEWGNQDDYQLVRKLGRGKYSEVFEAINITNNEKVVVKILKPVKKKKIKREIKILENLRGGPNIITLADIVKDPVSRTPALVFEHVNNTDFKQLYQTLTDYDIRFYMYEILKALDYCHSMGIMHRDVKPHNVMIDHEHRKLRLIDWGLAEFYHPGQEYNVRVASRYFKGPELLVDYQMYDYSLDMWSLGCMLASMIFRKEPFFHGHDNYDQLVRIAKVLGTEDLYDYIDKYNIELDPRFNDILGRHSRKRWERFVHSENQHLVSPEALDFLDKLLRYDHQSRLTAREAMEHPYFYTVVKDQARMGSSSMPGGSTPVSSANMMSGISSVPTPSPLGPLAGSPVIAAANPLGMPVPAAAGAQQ
T7 sequence (P06213 28-1382): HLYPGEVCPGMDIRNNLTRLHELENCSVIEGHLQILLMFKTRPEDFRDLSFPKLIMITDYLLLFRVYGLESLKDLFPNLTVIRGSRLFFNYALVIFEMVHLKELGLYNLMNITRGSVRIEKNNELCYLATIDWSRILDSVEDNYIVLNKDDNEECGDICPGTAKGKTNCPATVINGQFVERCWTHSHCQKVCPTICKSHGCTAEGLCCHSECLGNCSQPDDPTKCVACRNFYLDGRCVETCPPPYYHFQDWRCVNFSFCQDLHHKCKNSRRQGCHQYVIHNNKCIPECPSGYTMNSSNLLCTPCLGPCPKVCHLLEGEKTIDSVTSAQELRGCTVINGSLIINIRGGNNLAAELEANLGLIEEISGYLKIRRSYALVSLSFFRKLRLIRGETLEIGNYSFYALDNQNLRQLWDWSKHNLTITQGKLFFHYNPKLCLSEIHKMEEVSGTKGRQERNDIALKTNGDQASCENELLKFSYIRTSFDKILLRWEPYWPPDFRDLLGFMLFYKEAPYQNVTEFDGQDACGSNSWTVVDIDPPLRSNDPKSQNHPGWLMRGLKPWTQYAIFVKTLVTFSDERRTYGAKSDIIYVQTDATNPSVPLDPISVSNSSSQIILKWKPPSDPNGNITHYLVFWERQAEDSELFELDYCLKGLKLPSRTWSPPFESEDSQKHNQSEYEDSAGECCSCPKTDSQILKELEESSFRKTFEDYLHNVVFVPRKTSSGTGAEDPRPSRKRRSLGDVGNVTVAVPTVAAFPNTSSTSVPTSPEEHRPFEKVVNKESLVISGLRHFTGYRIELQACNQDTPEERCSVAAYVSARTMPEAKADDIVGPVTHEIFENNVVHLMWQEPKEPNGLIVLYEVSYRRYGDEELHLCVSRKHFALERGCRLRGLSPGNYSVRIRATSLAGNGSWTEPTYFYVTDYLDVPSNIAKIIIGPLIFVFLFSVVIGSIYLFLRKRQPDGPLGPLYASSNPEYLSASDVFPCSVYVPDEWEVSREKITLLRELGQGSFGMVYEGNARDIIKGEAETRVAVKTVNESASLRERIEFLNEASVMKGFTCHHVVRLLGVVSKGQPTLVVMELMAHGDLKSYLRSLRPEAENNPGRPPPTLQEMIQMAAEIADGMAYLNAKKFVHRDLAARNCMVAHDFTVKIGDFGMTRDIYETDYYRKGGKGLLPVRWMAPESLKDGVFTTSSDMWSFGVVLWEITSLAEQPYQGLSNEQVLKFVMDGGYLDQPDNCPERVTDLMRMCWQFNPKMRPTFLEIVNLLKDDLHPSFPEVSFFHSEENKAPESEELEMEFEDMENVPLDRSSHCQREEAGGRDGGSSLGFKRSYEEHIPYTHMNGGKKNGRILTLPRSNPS
T9 sequence (P00533 with tags, fused parts or gaps DEL746-750): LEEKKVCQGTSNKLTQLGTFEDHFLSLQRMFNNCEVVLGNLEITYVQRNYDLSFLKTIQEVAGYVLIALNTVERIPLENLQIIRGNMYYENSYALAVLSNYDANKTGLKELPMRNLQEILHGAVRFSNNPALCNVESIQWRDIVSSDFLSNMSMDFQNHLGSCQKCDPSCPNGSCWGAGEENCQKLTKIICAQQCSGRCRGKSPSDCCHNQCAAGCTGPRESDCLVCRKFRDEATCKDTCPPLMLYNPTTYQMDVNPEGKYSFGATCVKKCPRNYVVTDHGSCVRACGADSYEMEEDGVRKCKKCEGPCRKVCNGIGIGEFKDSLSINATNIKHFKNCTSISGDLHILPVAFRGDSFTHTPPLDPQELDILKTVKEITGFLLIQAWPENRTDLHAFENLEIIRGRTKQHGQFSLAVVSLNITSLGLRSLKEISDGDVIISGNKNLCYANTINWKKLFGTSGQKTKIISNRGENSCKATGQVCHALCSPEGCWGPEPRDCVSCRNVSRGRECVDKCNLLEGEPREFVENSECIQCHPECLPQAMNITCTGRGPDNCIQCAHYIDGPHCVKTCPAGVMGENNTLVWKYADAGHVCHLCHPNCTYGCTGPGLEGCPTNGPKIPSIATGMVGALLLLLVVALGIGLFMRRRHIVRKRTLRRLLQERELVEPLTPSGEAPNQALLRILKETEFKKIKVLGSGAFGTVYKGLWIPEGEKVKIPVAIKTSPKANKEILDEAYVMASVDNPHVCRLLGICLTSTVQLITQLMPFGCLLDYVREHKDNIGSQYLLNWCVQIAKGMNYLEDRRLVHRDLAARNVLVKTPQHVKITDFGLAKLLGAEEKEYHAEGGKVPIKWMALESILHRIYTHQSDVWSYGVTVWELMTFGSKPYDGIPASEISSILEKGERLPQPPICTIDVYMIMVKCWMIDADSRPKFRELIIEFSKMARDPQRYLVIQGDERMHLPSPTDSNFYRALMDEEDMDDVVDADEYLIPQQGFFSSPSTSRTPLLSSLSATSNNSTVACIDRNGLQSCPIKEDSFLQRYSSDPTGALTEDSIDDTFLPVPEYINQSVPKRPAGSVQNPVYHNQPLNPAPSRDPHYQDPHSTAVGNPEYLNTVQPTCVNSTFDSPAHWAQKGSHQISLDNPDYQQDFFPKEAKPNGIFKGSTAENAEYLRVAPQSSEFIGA
T2 sequence (Q8N568 whole entry): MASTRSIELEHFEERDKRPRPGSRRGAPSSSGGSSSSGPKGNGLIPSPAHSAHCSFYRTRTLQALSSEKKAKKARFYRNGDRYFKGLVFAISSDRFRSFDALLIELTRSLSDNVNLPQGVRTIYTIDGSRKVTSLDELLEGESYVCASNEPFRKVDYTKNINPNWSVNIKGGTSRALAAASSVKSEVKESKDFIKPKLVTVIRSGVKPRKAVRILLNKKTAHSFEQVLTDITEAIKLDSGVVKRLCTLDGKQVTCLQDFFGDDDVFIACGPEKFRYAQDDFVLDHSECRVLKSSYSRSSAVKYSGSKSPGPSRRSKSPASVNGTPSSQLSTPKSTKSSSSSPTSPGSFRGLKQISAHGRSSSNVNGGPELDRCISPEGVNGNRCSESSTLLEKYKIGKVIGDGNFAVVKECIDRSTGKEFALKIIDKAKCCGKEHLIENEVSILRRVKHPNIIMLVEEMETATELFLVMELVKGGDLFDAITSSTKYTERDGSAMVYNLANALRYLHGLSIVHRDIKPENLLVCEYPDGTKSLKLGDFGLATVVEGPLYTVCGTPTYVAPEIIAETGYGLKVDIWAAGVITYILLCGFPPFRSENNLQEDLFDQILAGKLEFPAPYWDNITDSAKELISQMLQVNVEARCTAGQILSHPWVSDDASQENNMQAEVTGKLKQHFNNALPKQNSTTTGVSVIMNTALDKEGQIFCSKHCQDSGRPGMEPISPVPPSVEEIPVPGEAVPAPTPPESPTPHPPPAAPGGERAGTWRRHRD

Row | remaining binding at 10 µM (KinomeScan kinase panel [1]; RPS6KA5(Kin.Dom.1)) | remaining binding at 10 µM (KinomeScan kinase panel [1]; RPS6KA5(Kin.Dom.2)) | SMILES | remaining binding at 10 µM (KinomeScan kinase panel [1]; [11]) | remaining binding at 10 µM (KinomeScan kinase panel [1]; [12]) | remaining binding at 10 µM (KinomeScan kinase panel [2]) | remaining binding at 10 µM (KinomeScan kinase panel [3]) | remaining binding at 10 µM (KinomeScan kinase panel [4]) | remaining binding at 10 µM (KinomeScan kinase panel [5]) | remaining binding at 10 µM (KinomeScan kinase panel [6]) | remaining binding at 10 µM (KinomeScan kinase panel [7]) | remaining binding at 10 µM (KinomeScan kinase panel [8]) | score (%) (KinomeScan kinase panel [9]) | remaining binding at 10 µM (KinomeScan kinase panel [10]) | score (%) (KinomeScan kinase panel [9]; EGFR(E746-A750del), 10 µM)
1 | – | – | CCN1CCN(Cc2ccc(NC(=O)c3ccc(C)c(NC(=O)c4cncc(-c5cccs5)c4)c3)cc2C(F)(F)F)CC1 [ALW-II-41-27] | 11% | > 30% | > 30% | > 30% | 8% | > 30% | > 30% | 12% | 0.15% | 1.2% | > 30% | –
2 | > 30% | > 30% | CCN1CCN(Cc2ccc(NC(=O)c3ccc(C)c(/C=C/c4cnc5[nH]ccc5c4Cl)c3)cc2C(F)(F)F)CC1 [HG-6-63-01, (E)-3-(2-(4-chloro-1H-pyrrolo[2,3-b]pyridin-5-yl)vinyl)-N-(4-((4-ethylpiperazin-1-yl)methyl)-3-(trifluoromethyl)phenyl)-4-methylbenzamide] | – | – | > 30% | > 30% | > 30% | > 30% | > 30% | > 30% | 0.7% | – | 15% | 0.9%
3 | – | – | CCN1CCN(Cc2ccc(NC(=O)c3ccc(C)c(C#Cc4cccnc4)c3)cc2C(F)(F)F)CC1 [XMD15-44] | 59% | 100% | > 30% | 84% | 4.1% | 88% | > 30% | > 30% | 0.5% | – | > 30% | 1.8%
